Laboratory results taken from ChEMBL document CHEMBL6153089, “Design, Synthesis, and Biological Evaluation of Thieno[3,2-d]pyrimidine Derivatives as the First Bifunctional PI3Kδ Isoform Selective/Bromodomain and Extra-Terminal Inhibitors” (J Med Chem, 2025).
Calls of active or inactive are those of the source. The rule behind the calls is not given here.

Assays:
SU-DHL-6 [1] = assay: Induction of apoptosis in human SU-DHL-6 cells assessed as viable cells at 0.5 uM incubated for 24 hrs by Annexin V-FITC/PI staining based flow cytometric analysis (reference value: 61.2 %); type: functional; settings: read-out: Activity
SUD4 [2] = assay: Induction of apoptosis in human SU-DHL-4 cells assessed as early apoptotic cells at 0.5 uM incubated for 24 hrs by Annexin V-FITC/PI staining based flow cytometric analysis (reference value: 25.3 %); type: functional
SUD4 [3] = assay: Induction of apoptosis in human SU-DHL-4 cells assessed as late apoptotic cells at 0.25 uM incubated for 24 hrs by Annexin V-FITC/PI staining based flow cytometric analysis (reference value: 6.74 %); type: functional
[4] = target: Bromodomain-containing protein 4 (Homo sapiens, UniProt O60885); assay: Inhibition of His-tagged BRD4-BD2 (unknown origin) incubated for 30 mins in presence of ATP by Alphascreen assay
[5] = target: Phosphatidylinositol 4,5-bisphosphate 3-kinase catalytic subunit gamma isoform (Homo sapiens, UniProt P48736); assay: Inhibition of human PI3Kgamma at 1 uM relative to control
[6] = Tmax in female BALB/c mouse at 1 mg/kg, iv measured after 12 hrs by LC-MS/MS analysis; type: ADME, organism-based; settings: in vivo
SUD4 [7] = assay: Induction of apoptosis in human SU-DHL-4 cells assessed as viable cells at 0.25 uM incubated for 24 hrs by Annexin V-FITC/PI staining based flow cytometric analysis (reference value: 65.2 %); type: functional; settings: read-out: Activity
[8] = target: Bromodomain-containing protein 3 (Homo sapiens, UniProt Q15059); assay: Inhibition of His-tagged BRD3-BD1 (unknown origin) incubated for 30 mins in presence of ATP by Alphascreen assay
SU-DHL-6 [9] = assay: Cell cycle arrest in human SU-DHL-6 cells assessed as accumulation of cells at S phase incubated for 12 hrs by PI staining based flow cytometric analysis; type: functional; settings: dose 0.25-1 µM
SU-DHL-6 [10] = assay: Induction of apoptosis in human SU-DHL-6 cells assessed as necrotic cells at 1 uM incubated for 24 hrs by Annexin V-FITC/PI staining based flow cytometric analysis (reference value: 0.246 %); type: functional
[11] = Oral bioavailability in female BALB/c mouse at 20 mg/kg measured after 24 hrs by LC-MS/MS analysis; type: ADME, organism-based; settings: in vivo
[12] = target: Phosphatidylinositol 4-phosphate 3-kinase C2 domain-containing subunit alpha (Homo sapiens) (UniProt O00443); assay: Inhibition of human PI3KC2alpha at 1 uM relative to control
SUD4 [13] = assay: Induction of apoptosis in human SU-DHL-4 cells assessed as viable cells at 1 uM incubated for 24 hrs by Annexin V-FITC/PI staining based flow cytometric analysis (reference value: 65.2 %); type: functional; settings: read-out: Activity
[14] = target: Serine/threonine-protein kinase mTOR (Homo sapiens, UniProt P42345); assay: Inhibition of mTOR (unknown origin) incubated for 2 hrs in presence of ATP by ADP-kinaseGlo reagent based assay
[15] = Cmax in female BALB/c mouse at 1 mg/kg, iv measured after 12 hrs by LC-MS/MS analysis; type: ADME, organism-based; settings: in vivo
[16] = tested on: PI3-kinase p110-alpha/p85-alpha (Homo sapiens), P27986+P42336 [E542K]; assay: Inhibition of human p110alpha-E545K mutant/p85alpha at 1 uM relative to control; type: protein-complex assay
SUD4 [17] = assay: Cell cycle arrest in human SU-DHL-4 cells assessed as accumulation of cells at S phase incubated for 12 hrs by PI staining based flow cytometric analysis; type: functional; settings: dose 0.25-1 µM
[18] = Tmax in female BALB/c mouse at 20 mg/kg, po measured after 24 hrs by LC-MS/MS analysis; type: ADME, organism-based; settings: in vivo
SU-DHL-6 [19] = assay: Antiproliferative activity against human SU-DHL-6 cells assessed as inhibition of cell proliferation by measuring reduction in cell count incubated for 6 days by photographic analysis; type: functional, cell-based; settings: dose 12.5-50 nM, time 6.0 day
[20] = target: Phosphatidylinositol 4-phosphate 5-kinase type-1 gamma (Homo sapiens) (UniProt O60331); assay: Inhibition of human PIP5K1gamma at 1 uM relative to control
[21] = Toxicity in female BALB/c mouse model xenografted with human SU-DHL-6 cells assessed as effect on kidney histopathology at 20 mg/kg, po administered once daily via gavage for 15 days by H and E staining based analysis; type: organism-based; settings: in vivo, 360 h, time 15 day
[22] = target: Phosphatidylinositol 3-kinase C2 domain-containing subunit gamma (Homo sapiens) (UniProt O75747); assay: Inhibition of human PI3KC2gamma at 1 uM relative to control
SU-DHL-6 [23] = assay: Induction of apoptosis in human SU-DHL-6 cells assessed as late apoptotic cells at 0.5 uM incubated for 24 hrs by Annexin V-FITC/PI staining based flow cytometric analysis (reference value: 6.43 %); type: functional
SU-DHL-6 [24] = assay: Downregulation of c-Myc expression in human SU-DHL-6 cells at 0.25 to 1 uM incubated for 12 hrs by Western blot analysis; type: functional, cell-based; settings: dose 0.25-1 µM
SU-DHL-6 [25] = assay: Antitumor activity against human SU-DHL-6 cells xenografted in female BALB/c mouse model assessed as reduction in phosphorylated AKT level in tumor at 20 mg/kg, po administered once daily via gavage for 15 days by Western blot analysis; type: functional, organism-based; settings: time 15.0 day
SUD4 [26] = assay: Induction of apoptosis in human SU-DHL-4 cells assessed as early apoptotic cells at 1 uM incubated for 24 hrs by Annexin V-FITC/PI staining based flow cytometric analysis (reference value: 25.3 %); type: functional
[27] = target: T1, PI3-kinase p110-delta/p85-alpha (Homo sapiens) (UniProt P27986+O00329); assay: Inhibition of p110delta/p85alpha (unknown origin) at 100 nM incubated for 2 hrs in presence of ATP by ADP-kinaseGlo reagent based assay relative to control; type: protein-complex assay
[28] = target: Phosphatidylinositol 5-phosphate 4-kinase type-2 alpha (Homo sapiens) (UniProt P48426); assay: Inhibition of human PIP4K2alpha at 1 uM relative to control
SUD4 [29] = assay: Induction of apoptosis in human SU-DHL-4 cells assessed as necrotic cells at 1 uM incubated for 24 hrs by Annexin V-FITC/PI staining based flow cytometric analysis (reference value: 0.642 %); type: functional
[30] = Toxicity in female BALB/c mouse model xenografted with human SU-DHL-6 cells assessed as effect on lung histopathology at 20 mg/kg, po administered once daily via gavage for 15 days by H and E staining based analysis; type: organism-based; settings: in vivo, 360 h, time 15 day
SU-DHL-6 [31] = assay: Inhibition of AKT phosphorylation in human SU-DHL-6 cells incubated for 12 hrs by Western blot analysis; type: cell-based; settings: dose 0.25-1 µM
SU-DHL-6 [32] = assay: Antitumor activity against human SU-DHL-6 cells xenografted in female BALB/c mouse model assessed as tumor growth inhibition at 20 mg/kg, po administered once daily via gavage for 15 days relative to control; type: functional; settings: SU-DHL-6, 360 h, time 15 day, read-out: TGI
[33] = target: T1, PI3-kinase p110-delta/p85-alpha (Homo sapiens); assay: Inhibition of human p110delta/p85alpha at 1 uM relative to control; type: protein-complex assay
[34] = target: PI3K p110 beta/p85 alpha (Homo sapiens) (UniProt P27986+P42338); assay: Inhibition of human p110beta/p85alpha at 1 uM relative to control; type: protein-complex assay
[35] = target: Phosphatidylinositol 4-phosphate 5-kinase type-1 alpha (Homo sapiens) (UniProt Q99755); assay: Inhibition of human PIP5K1alpha at 1 uM relative to control
Chain of Phosphatidylinositol 4-phosphate 5-kinase type-1 alpha (Homo sapiens) (Q99755 whole entry): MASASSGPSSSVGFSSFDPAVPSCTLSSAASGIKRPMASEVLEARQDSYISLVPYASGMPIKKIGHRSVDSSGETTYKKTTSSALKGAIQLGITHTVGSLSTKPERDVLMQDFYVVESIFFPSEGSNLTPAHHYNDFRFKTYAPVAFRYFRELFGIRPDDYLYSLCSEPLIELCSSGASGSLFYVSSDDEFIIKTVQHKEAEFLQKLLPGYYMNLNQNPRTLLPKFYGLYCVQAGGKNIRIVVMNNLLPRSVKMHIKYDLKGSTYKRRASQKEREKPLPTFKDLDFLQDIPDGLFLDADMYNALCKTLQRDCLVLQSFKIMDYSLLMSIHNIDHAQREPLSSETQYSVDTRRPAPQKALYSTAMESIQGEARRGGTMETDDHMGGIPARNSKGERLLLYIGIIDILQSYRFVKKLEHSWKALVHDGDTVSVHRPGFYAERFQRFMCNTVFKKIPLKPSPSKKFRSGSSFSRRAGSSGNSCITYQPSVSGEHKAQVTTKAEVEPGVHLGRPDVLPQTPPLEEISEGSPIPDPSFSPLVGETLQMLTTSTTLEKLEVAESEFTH

Chain of Phosphatidylinositol 4-phosphate 3-kinase C2 domain-containing subunit alpha (Homo sapiens) (O00443 whole entry, the tested form may be a part): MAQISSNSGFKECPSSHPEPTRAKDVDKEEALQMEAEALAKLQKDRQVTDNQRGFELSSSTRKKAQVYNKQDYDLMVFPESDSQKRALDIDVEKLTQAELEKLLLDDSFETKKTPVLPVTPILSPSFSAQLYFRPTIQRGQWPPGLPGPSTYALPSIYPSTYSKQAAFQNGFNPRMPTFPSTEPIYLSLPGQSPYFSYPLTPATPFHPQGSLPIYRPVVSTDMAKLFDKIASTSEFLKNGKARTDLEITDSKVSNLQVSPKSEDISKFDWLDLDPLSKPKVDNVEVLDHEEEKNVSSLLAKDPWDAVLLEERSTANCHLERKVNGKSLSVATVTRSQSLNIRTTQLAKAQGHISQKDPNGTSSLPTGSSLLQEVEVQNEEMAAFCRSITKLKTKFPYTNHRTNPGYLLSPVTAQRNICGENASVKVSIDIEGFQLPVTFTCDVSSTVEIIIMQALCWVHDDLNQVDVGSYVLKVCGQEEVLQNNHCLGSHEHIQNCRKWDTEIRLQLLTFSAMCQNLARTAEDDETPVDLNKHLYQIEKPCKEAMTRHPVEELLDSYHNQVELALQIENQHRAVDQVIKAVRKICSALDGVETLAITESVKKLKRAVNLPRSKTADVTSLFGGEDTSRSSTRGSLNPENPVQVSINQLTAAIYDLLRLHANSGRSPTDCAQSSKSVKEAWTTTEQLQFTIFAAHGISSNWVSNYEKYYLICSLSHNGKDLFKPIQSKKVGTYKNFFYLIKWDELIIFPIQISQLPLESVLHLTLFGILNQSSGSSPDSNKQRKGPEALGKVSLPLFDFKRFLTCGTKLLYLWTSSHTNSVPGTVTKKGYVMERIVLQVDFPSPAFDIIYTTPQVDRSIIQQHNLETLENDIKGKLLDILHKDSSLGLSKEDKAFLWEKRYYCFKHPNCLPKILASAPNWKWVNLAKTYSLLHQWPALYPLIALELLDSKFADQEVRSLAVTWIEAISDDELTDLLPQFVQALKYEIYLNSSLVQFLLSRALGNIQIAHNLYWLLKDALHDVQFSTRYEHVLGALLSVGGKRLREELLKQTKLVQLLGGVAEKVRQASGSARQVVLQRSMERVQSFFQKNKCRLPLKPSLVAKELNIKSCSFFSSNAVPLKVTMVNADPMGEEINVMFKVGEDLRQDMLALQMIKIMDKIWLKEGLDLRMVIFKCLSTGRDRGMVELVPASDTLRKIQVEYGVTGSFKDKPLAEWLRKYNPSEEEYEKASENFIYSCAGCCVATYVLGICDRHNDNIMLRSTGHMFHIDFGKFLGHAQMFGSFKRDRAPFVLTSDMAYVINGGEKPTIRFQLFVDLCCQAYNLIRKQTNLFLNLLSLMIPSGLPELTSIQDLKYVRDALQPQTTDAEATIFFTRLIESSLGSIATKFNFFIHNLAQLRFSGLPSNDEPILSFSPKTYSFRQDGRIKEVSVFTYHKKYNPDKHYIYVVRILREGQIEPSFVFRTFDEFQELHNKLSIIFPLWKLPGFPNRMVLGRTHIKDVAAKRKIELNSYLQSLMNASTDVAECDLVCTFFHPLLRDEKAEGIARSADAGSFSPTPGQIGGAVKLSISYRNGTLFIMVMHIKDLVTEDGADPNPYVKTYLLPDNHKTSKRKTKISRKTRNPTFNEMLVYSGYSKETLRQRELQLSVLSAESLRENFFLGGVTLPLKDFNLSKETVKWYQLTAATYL
Chain of Phosphatidylinositol 4-phosphate 5-kinase type-1 gamma (Homo sapiens) (O60331 whole entry): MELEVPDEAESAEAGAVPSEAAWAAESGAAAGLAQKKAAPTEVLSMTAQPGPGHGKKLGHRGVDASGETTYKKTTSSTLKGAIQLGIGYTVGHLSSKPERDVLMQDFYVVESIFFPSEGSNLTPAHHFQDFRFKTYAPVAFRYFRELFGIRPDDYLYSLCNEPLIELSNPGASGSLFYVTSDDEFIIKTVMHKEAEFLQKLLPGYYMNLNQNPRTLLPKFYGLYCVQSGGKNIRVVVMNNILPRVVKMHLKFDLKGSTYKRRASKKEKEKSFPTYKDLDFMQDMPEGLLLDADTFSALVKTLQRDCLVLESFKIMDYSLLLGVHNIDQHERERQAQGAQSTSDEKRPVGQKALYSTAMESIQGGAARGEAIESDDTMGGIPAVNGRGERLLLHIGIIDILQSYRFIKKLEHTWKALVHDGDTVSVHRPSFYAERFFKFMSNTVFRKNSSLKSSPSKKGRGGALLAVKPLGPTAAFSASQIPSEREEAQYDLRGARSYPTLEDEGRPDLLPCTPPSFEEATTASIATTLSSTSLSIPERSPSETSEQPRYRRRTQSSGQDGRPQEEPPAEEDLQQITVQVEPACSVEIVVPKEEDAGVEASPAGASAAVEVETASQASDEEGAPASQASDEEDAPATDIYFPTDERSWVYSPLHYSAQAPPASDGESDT
Chain of Bromodomain-containing protein 3 (Q15059 whole entry): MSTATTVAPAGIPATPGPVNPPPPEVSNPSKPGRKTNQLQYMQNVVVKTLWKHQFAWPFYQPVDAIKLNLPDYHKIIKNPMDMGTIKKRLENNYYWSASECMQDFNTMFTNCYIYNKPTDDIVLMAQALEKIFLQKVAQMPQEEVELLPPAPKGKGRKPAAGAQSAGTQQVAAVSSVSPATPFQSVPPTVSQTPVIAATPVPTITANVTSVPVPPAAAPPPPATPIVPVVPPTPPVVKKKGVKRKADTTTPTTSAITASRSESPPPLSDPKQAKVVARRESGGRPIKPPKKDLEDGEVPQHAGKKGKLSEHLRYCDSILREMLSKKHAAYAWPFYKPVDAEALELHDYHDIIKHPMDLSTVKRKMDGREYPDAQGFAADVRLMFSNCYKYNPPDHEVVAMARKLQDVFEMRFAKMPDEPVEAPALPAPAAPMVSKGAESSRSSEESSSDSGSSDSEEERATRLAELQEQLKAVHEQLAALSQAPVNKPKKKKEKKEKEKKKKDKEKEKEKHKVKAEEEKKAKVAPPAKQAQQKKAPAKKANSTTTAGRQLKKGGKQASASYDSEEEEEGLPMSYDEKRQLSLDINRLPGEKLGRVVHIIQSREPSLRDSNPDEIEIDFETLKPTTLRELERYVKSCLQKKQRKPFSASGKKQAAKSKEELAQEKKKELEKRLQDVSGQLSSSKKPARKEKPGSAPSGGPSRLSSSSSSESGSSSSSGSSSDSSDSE
Chain of Phosphatidylinositol 3-kinase C2 domain-containing subunit gamma (Homo sapiens) (O75747 whole entry, the tested form may be a part): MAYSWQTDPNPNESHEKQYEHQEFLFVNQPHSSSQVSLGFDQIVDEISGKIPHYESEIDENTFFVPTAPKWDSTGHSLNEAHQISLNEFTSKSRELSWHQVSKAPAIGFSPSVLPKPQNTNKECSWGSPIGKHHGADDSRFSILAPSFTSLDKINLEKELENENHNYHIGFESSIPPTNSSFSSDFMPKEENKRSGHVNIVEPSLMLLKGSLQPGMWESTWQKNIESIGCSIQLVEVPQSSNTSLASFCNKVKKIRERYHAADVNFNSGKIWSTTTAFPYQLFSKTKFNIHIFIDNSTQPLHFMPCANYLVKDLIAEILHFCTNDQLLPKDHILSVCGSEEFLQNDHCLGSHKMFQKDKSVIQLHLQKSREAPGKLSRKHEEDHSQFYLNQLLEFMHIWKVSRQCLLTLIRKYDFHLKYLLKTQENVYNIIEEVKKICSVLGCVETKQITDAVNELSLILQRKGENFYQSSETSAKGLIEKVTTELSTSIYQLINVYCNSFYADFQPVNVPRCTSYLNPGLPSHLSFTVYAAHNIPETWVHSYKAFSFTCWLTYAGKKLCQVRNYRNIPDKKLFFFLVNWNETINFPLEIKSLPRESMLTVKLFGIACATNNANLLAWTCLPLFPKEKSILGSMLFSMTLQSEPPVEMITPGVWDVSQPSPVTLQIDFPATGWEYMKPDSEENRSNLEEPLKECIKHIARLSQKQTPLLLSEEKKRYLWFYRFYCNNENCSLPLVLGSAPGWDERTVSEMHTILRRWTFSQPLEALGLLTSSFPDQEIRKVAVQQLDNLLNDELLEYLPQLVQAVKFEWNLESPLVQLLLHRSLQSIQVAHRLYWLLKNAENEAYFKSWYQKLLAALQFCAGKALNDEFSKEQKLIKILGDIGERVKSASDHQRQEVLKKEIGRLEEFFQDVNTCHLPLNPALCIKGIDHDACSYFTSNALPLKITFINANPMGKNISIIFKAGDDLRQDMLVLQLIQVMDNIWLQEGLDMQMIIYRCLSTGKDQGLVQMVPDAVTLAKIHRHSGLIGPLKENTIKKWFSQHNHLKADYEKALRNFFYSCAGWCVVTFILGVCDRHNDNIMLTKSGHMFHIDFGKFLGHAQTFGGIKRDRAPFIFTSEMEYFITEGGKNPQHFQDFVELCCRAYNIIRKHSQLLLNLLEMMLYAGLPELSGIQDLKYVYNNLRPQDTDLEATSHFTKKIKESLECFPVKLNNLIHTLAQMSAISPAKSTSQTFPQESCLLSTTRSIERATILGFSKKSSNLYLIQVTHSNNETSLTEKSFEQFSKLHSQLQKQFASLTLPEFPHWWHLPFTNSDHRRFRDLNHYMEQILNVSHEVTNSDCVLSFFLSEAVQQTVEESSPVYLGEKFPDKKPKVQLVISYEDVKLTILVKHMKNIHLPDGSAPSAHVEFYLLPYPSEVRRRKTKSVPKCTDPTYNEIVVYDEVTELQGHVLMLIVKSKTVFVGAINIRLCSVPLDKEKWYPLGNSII

IC50 [4]: 2 nM
inhibition [5]: 57.2%
Tmax [6]: 1.98 min
IC50 [8]: 32 nM
bioavailability [11]: 74.8%
inhibition [12]: 3.4%
IC50 [14]: > 10 µM
Cmax [15]: 544 ng/mL
inhibition [16]: 17.3%
Tmax [18]: 30 min
inhibition [20]: 75.7%
inhibition [22]: 15.6%
inhibition [27]: 41.6%
inhibition [28]: 0.3%
inhibition [33]: 94.1%
inhibition [34]: 44.3%
inhibition [35]: 72.6%
Structure (SMILES): Cn1cc(-c2nc(N3CCOCC3)c3sc(CN4CCC(C(C)(C)O)CC4)cc3n2)c2cc[nH]c2c1=O
viability at 0.5 µM (SU-DHL-6 [1]): 49.7%
Activity (SUD4 [2]): 30.8%
Activity (SUD4 [3]): 12.6%
viability at 0.25 µM (SUD4 [7]): 53.7%
Activity (SU-DHL-6 [9]): Dose-dependent-effect
Activity (SU-DHL-6 [10]): 0.58%
viability at 1 µM (SUD4 [13]): 28.1%
Activity (SUD4 [17]): Dose-dependent-effect
Activity (SU-DHL-6 [19]): Dose-dependent-effect; Stronger Effect Observed At Lower Concentration Than Those Of Sf2523
Activity [21]: Non-toxic
Activity (SU-DHL-6 [23]): 7.86%
Activity (SU-DHL-6 [24]): Active
Activity (SU-DHL-6 [25]): Active
Activity (SUD4 [26]): 45.3%
Activity (SUD4 [29]): 0.505%
Activity [30]: Non-toxic
inhibition (SU-DHL-6 [31]): Dose-dependent-effect
inhibition in vivo at 20 mg/kg (SU-DHL-6 [32]): 70.8%
